One experiment addresses Prothrombin (Bos taurus) (UniProt P00735). In words: Relative potency for fibrin clot inhibition compared to hirudin55-65. In kind it is functional. Set-up: unit not given here.
In a further experiment the target is Prothrombin (Bos taurus, UniProt P00735). In words: Inhibition of plasma fibrin clot formation by thrombin in vitro. In kind it is functional, cell-free.

The structures appear in SMILES notation. pIC50: −log10 of the molar value. Square brackets hold non-standard residues; d marks the D form. Peptide text beside a SMILES is read from it. sY = N[C@@H](Cc1ccc(OS(=O)(=O)O)cc1)C(=O)O; Sar = CNCC(=O)O

One may read the pIC50 as the IC50 on a negative log10 scale, so that one unit is a factor of ten. With `CC[C@H](C)[C@H](NC(=O)[C@H](CCC(=O)O)NC(=O)[C@H](CCC(=O)O)NC(=O)[C@H](Cc1ccccc1)NC(=O)[C@@H](N)CC(=O)O)C(=O)N1CCC[C@H]1C(=O)N[C@@H](CCC(=O)O)C(=O)N[C@@H](CCC(=O)O)C(=O)N[C@@H](C)C(=O)N[C@@H](CC(C)C)C(=O)N[C@@H](CCC(N)=O)C(=O)O` (H-DFEEIPEEALQ-OH), the Relative potency on Prothrombin (Bos taurus) came to 52. At Prothrombin, the pIC50 was 4.87.

For the molecule `CC[C@H](C)[C@H](NC(=O)[C@H](CCC(=O)O)NC(=O)[C@H](CCC(=O)O)NC(=O)[C@H](Cc1ccccc1)NC(=O)[C@H](CC(=O)O)NC(=O)CN)C(=O)N[C@H](C)C(=O)N[C@@H](CCC(=O)O)C(=O)N[C@@H](CCC(=O)O)C(=O)N[C@@H](Cc1ccc(OS(=O)(=O)O)cc1)C(=O)N[C@@H](CC(C)C)C(=O)N[C@@H](CCC(N)=O)C(=O)O`, the Relative potency at Prothrombin (Bos taurus) came out at 26. At Prothrombin, the pIC50 was 4.57.

In turn, `CC[C@H](C)[C@H](NC(=O)[C@H](CCC(=O)O)NC(=O)[C@H](CCC(=O)O)NC(=O)[C@H](Cc1ccccc1)NC(=O)[C@@H](N)CC(=O)O)C(=O)N1CCC[C@H]1C(=O)N[C@@H](C)C(=O)N[C@@H](CCC(=O)O)C(=O)N[C@@H](Cc1ccc(OS(=O)(=O)O)cc1)C(=O)N[C@@H](CC(C)C)C(=O)N[C@@H](CCC(N)=O)C(=O)O` (H-DFEEIPAE[sY]LQ-OH) displayed a Relative potency on Prothrombin (Bos taurus) of 38. On Prothrombin, the pIC50 is 4.73.

For the molecule `CC[C@H](C)[C@H](NC(=O)[C@H](CCC(=O)O)NC(=O)[C@H](CCC(=O)O)NC(=O)[C@H](Cc1ccccc1)NC(=O)[C@@H](N)CC(=O)O)C(=O)N1CCC[C@H]1C(=O)N[C@@H](CCC(=O)O)C(=O)N[C@@H](CCC(=O)O)C(=O)N[C@@H](Cc1ccc(OS(=O)(=O)O)cc1)C(=O)N[C@@H](C)C(=O)N[C@@H](CCC(N)=O)C(=O)O` (H-DFEEIPEE[sY]AQ-OH), on Prothrombin (Bos taurus), the Relative potency was less than 3. This molecule showed a pIC50 at Prothrombin of less than 3.70.

`CC[C@H](C)[C@H](NC(=O)[C@H](CCC(=O)O)NC(=O)[C@H](CCC(=O)O)NC(=O)[C@H](Cc1ccccc1)NC(=O)[C@@H](N)CC(=O)O)C(=O)N[C@@H](C)C(=O)N[C@@H](CCC(=O)O)C(=O)N[C@@H](CCC(=O)O)C(=O)N[C@@H](Cc1ccc(OS(=O)(=O)O)cc1)C(=O)N[C@@H](CC(C)C)C(=O)N[C@@H](CCC(N)=O)C(=O)O` (H-DFEEIAEE[sY]LQ-OH): the Relative potency on Prothrombin (Bos taurus) is less than 3. At Prothrombin, this molecule had a pIC50 of less than 3.70.

`CC[C@H](C)[C@H](NC(=O)[C@H](C)NC(=O)[C@H](CCC(=O)O)NC(=O)[C@H](Cc1ccccc1)NC(=O)[C@@H](N)CC(=O)O)C(=O)N1CCC[C@H]1C(=O)N[C@@H](CCC(=O)O)C(=O)N[C@@H](CCC(=O)O)C(=O)N[C@@H](Cc1ccc(OS(=O)(=O)O)cc1)C(=O)N[C@@H](CC(C)C)C(=O)N[C@@H](CCC(N)=O)C(=O)O` (H-DFEAIPEE[sY]LQ-OH) gave a Relative potency on Prothrombin (Bos taurus) of 53. Moreover, the pIC50 against Prothrombin is 4.88.

Take `CC[C@H](C)[C@H](NC(=O)[C@H](CCC(=O)O)NC(=O)[C@H](CCC(=O)O)NC(=O)[C@H](CCC(=O)O)NC(=O)[C@@H](N)CC(=O)O)C(=O)N1CCC[C@H]1C(=O)N[C@@H](CCC(=O)O)C(=O)N[C@@H](CCC(=O)O)C(=O)N[C@@H](Cc1ccc(OS(=O)(=O)O)cc1)C(=O)N[C@@H](CC(C)C)C(=O)N[C@@H](CCC(N)=O)C(=O)O` (H-DEEEIPEE[sY]LQ-OH): at Prothrombin (Bos taurus), the Relative potency was less than 2. Also, at Prothrombin, the pIC50 is less than 3.70.

For `CC[C@H](C)[C@H](NC(=O)[C@H](CCC(=O)O)NC(=O)[C@H](CCC(=O)O)NC(=O)[C@H](Cc1ccccc1)NC(=O)[C@@H](N)CC(=O)O)C(=O)N1CCC[C@H]1C(=O)N[C@@H](CCC(=O)O)C(=O)N[C@@H](CCC(=O)O)C(=O)N[C@@H](CCC(=O)O)C(=O)N[C@@H](CC(C)C)C(=O)N[C@@H](C)C(=O)O` (H-DFEEIPEEELA-OH), the Relative potency on Prothrombin (Bos taurus) was 12. Further, the pIC50 against Prothrombin was 4.23.

On to `CC[C@H](C)[C@H](NC(=O)[C@H](CCC(=O)O)NC(=O)[C@H](CCC(=O)O)NC(=O)[C@H](CC(C)C)NC(=O)[C@@H](N)CC(=O)O)C(=O)N1CCC[C@H]1C(=O)N[C@@H](CCC(=O)O)C(=O)N[C@@H](CCC(=O)O)C(=O)N[C@@H](Cc1ccc(OS(=O)(=O)O)cc1)C(=O)N[C@@H](CC(C)C)C(=O)N[C@@H](CCC(N)=O)C(=O)O` (H-DLEEIPEE[sY]LQ-OH), for which, on Prothrombin (Bos taurus), the Relative potency is less than 2. On Prothrombin, this molecule gave a pIC50 of less than 3.70.

Molecule `CC(C)C[C@H](NC(=O)[C@H](Cc1ccc(OS(=O)(=O)O)cc1)NC(=O)[C@H](CCC(=O)O)NC(=O)[C@H](CCC(=O)O)NC(=O)[C@@H]1CCCN1C(=O)[C@H](C)NC(=O)[C@H](CCC(=O)O)NC(=O)[C@H](CCC(=O)O)NC(=O)[C@H](Cc1ccccc1)NC(=O)[C@@H](N)CC(=O)O)C(=O)N[C@@H](CCC(N)=O)C(=O)O` (H-DFEEAPEE[sY]LQ-OH) came in with a Relative potency on Prothrombin (Bos taurus) of less than 3. Moreover, the pIC50 on Prothrombin is less than 3.70.

`CC[C@H](C)[C@H](NC(=O)[C@H](CCC(=O)O)NC(=O)[C@H](CCC(=O)O)NC(=O)[C@H](Cc1ccccc1)NC(=O)[C@H](CC(=O)O)NC(=O)CN)C(=O)N(C)CC(=O)N[C@@H](CCC(=O)O)C(=O)N[C@@H](CCC(=O)O)C(=O)N[C@@H](Cc1ccc(OS(=O)(=O)O)cc1)C(=O)N[C@@H](CC(C)C)C(=O)N[C@@H](CCC(N)=O)C(=O)O` (H-GDFEEI[Sar]EE[sY]LQ-OH) gave a Relative potency at Prothrombin (Bos taurus) of 41. For the same molecule, the pIC50 on Prothrombin was 4.76.

On to `CC[C@H](C)[C@H](NC(=O)[C@H](CCC(=O)O)NC(=O)[C@H](CCC(=O)O)NC(=O)[C@H](Cc1ccccc1)NC(=O)[C@@H](N)CC(=O)O)C(=O)N1CCC[C@H]1C(=O)N[C@@H](CCC(=O)O)C(=O)N[C@@H](C)C(=O)N[C@@H](Cc1ccc(OS(=O)(=O)O)cc1)C(=O)N[C@@H](CC(C)C)C(=O)N[C@@H](CCC(N)=O)C(=O)O` (H-DFEEIPEA[sY]LQ-OH), for which, on Prothrombin (Bos taurus), the Relative potency came to 17. The pIC50 at Prothrombin was 4.37.

On to `CC(C)CC(NC(=O)[C@H](Cc1ccc(OS(=O)(=O)O)cc1)NC(=O)[C@H](CCC(=O)O)NC(=O)[C@H](CCC(=O)O)NC(=O)[C@@H]1CCCN1C(=O)C(CC(C)C)NC(=O)[C@H](CCC(=O)O)NC(=O)[C@H](CCC(=O)O)NC(=O)[C@H](Cc1ccccc1)NC(=O)[C@@H](N)CC(=O)O)C(=O)N[C@@H](C)C(=O)O` (stereo in doubt), for which the Relative potency at Prothrombin (Bos taurus) was less than 3. This molecule had a negative-log IC50 (pIC50) against Prothrombin of less than 3.70.

`CC(C)C[C@H](NC(=O)[C@H](Cc1ccc(OS(=O)(=O)O)cc1)NC(=O)[C@H](CCC(=O)O)NC(=O)[C@H](CCC(=O)O)NC(=O)[C@@H]1CCCN1C(=O)[C@H](CC(C)C)NC(=O)[C@H](CCC(=O)O)NC(=O)[C@H](CCC(=O)O)NC(=O)[C@H](Cc1ccccc1)NC(=O)[C@H](CC(=O)O)NC(=O)CN)C(=O)N[C@@H](CCC(N)=O)C(=O)O` (H-GDFEELPEE[sY]LQ-OH): on Prothrombin (Bos taurus), the Relative potency was 86. This molecule also showed a pIC50 against Prothrombin of 5.08.

For `CC[C@H](C)[C@H](NC(=O)[C@H](CCC(=O)O)NC(=O)[C@H](CCC(=O)O)NC(=O)[C@H](Cc1ccc(O)cc1)NC(=O)[C@H](CC(=O)O)NC(=O)CN)C(=O)N1CCC[C@H]1C(=O)N[C@@H](CCC(=O)O)C(=O)N[C@@H](CCC(=O)O)C(=O)N[C@@H](Cc1ccc(OS(=O)(=O)O)cc1)C(=O)N[C@@H](CC(C)C)C(=O)N[C@@H](CCC(N)=O)C(=O)O` (H-GDYEEIPEE[sY]LQ-OH), the Relative potency at Prothrombin (Bos taurus) was 215. This molecule gave a pIC50 against Prothrombin of 5.48.

For the molecule `CC[C@H](C)[C@H](NC(=O)[C@H](CCC(=O)O)NC(=O)[C@H](C)NC(=O)[C@H](Cc1ccccc1)NC(=O)[C@@H](N)CC(=O)O)C(=O)N1CCC[C@H]1C(=O)N[C@@H](CCC(=O)O)C(=O)N[C@@H](CCC(=O)O)C(=O)N[C@@H](Cc1ccc(OS(=O)(=O)O)cc1)C(=O)N[C@@H](CC(C)C)C(=O)N[C@@H](CCC(N)=O)C(=O)O` (H-DFAEIPEE[sY]LQ-OH), the Relative potency on Prothrombin (Bos taurus) was less than 3. At Prothrombin, this molecule gave a pIC50 of less than 3.70.

Molecule `CC[C@H](C)[C@H](NC(=O)[C@H](CCC(=O)O)NC(=O)[C@H](CCC(=O)O)NC(=O)[C@H](Cc1ccccc1)NC(=O)[C@H](CC(=O)O)NC(=O)CNC(=O)[C@H](CC(=O)O)NC(=O)[C@H](CC(N)=O)NC(=O)[C@H](Cc1cnc[nH]1)NC(=O)[C@H](CO)NC(=O)[C@H](CCC(N)=O)NC(=O)[C@@H]1CCCN1C(=O)[C@H](CCCCN)NC(=O)[C@@H]1CCCN1C(=O)[C@@H](NC(C)=O)[C@@H](C)O)C(=O)N1CCC[C@H]1C(=O)N[C@@H](CCC(=O)O)C(=O)N[C@@H](CCC(=O)O)C(=O)N[C@@H](Cc1ccc(OS(=O)(=O)O)cc1)C(=O)N[C@@H](CC(C)C)C(=O)N[C@@H](CCC(N)=O)C(=O)O` showed a pIC50 against Prothrombin of 5.80.
